Measured values published in US12459951B2, “Compounds that interact with RAS superfamily proteins for treatment of cancers, inflammatory diseases, rasopathies, and fibrotic disease” (SHY Therapeutics, LLC, priority 2022, dated 2025).

Legend:
PUMA expression = assay: Cell-based Puma expression assay (western blot); design: species or system human
Procedure: Biological Example 4: Puma Expression and Caspases Activation Assay
Protocols for Cell-Based Puma Expression and Caspase Activation Assays
Cell lines: All human tumor-derived cancer cell lines were purchased from American Type Culture Collection. Human tumor-derived cancer cell lines Panc-1 (expressing KRas G12D mutant), MiaPaca-2 (expressing KRas G12C mutant), A549 (expressing KRas G12S mutant), and A375 (expressing wild type KRas) were grown in complete DMEM-High Glucose medium and NCI-H1975 (expressing wild type KRas), MM.1R (expressing wild type KRas) and IM.9 (expressing wild type KRas) were grown in RPMI1640 medium. Human tumor-derived cancer cell line BT-549 (expressing wild type KRas) was grown in RPMI1640 medium with 11.8U insulin. All mediums were supplemented with penicillin (100 U/mL), streptomycin (100 μg/mL), and 10% heat-inactivated FBS at 37° C. in a humidified incubator with 5% CO2.
Method: Cells were plated at 300,000 to 800,000 cells/well density in a 6-well plate in the presence of 10% FBS. The next day small molecules to be tested were added to the cells in the final concentration of 3 μM in the presence of 0.3% DMSO for 48 hours incubation at 37° C. For IC50 value determination, serial dilutions of compounds were added to cells under the same conditions. Following 48 hours of incubation cells were lysed with lysis buffer containing 1% Triton X-100, EDTA, and Halt™ Protease & Phosphatase Inhibitor Cocktail (Thermo Scientific). Protein concentration was assessed by BCA protein assay (Thermo Scientific). Increase expression of PUMA and active/cleaved forms of caspase 3, caspase 6 and caspase 9 were detected by western blot.
Western blot protocol: Equal amounts of protein (15-50 μg) were separated by SDS-PAGE and transferred to nitrocellulose membranes (Invitrogen by Thermo Fisher Scientific). The membrane was stained with Ponceau S Stain (Boston BioProducts) to verify uniform protein loading. Membranes were blocked with 10% milk and expression levels of PUMA was assessed by incubating overnight at 4° C. with the antibody PUMA (D30C10) from Cell Signaling Technology (#12450) and active/cleaved forms of caspase 3, caspase 6 and caspase 9 by incubating overnight at 4° C. with the following antibodies: cleaved caspase-3 (Asp175) (5A1E), cleaved caspase-6 (Asp162) and cleaved caspase-9 (Asp330) (D2D4) (all antibodies from Cell Signaling Technology). Then the membranes were incubated with HRP-conjugated secondary antibody (Jackson Immunoresearch, West Grove, PA). Bands were incubated in Amersham ECL Prime Western Blotting Detection Reagent (GE Healthcare) and visualized using the ChemiDoc MP imaging system (Bio-Rad).

[1] = test system: HPAF-II (expressing KRas G12D mutant); assay: Proliferation Assay (Cell Viability Assay); assay type: cell-based; conditions: Homo sapiens, pancreatic
In short: (§1)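 Cells plated at 2000–5000/well overnight, then treated 2–4 days at 37 °C, 5% CO2 with compound at 10 μM single dose or serial dilutions for IC50, in 0.3% DMSO and 10% FBS. Viability read by CellTiter 96 Aqueous One (MTS); % proliferation inhibition calculated from raw data.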

[2] = test system: BT-20 (expressing wild type KRas); assay: Proliferation Assay (Cell Viability Assay); assay type: cell-based; conditions: Homo sapiens; BT-20, Breast (TNBC), KRas WT
In short: as §1

[3] = test system: A549 (expressing KRas G12S mutant); assay: Proliferation Assay (Cell Viability Assay); assay type: cell-based; conditions: Homo sapiens, A549, NSCLC
Procedure: (§2) Cell lines: Human tumor-derived cell lines were purchased from American Type Culture Collection. Human tumor-derived pancreatic cancer cell line MiaPaca-2 (expressing KRAS G12C mutant) and Panc-1 (expressing KRas G12D mutant), and Human non-small cell lung cancer (NSCLC) cell line A549 (expressing KRas G12S mutant) were grown in complete DMEM-High Glucose medium. Human colon cancer cell line SW-620 (expressing KRas G12V mutant) was grown in RPMI 1640 medium. All cell lines were supplemented with penicillin (100 U/mL), streptomycin (100 μg/mL), and 10% heat-inactivated FBS at 37° C. in a humidified incubator with 5% CO2.
(§3) Method: Cells were plated at 2000 to 5000 cells/well density in 96-wells plate and cultured overnight. Small molecules to be tested were added to the cells in the final concentration of 10 μM in the presence of 0.3% DMSO and 10% FBS and incubated for 2-4 days at 37° C. in a humidified incubator with 5% CO2. For IC50 value determination, serial dilutions of compounds were added to cells under the same conditions.
(§4) Assay: At the end of the incubation period, cell viability was determined using the CellTiter 96® Aqueous One Solution Cell Proliferation Assay according to manufacturer specifications (Promega, Madison, WI). The percentage of small molecules inhibition of cellular proliferation was calculated from raw data.
(§5) Cell lines: these Human tumor-derived cell lines were purchased from American Type Culture Collection. Human tumor-derived pancreatic cancer cell line MiaPaca-2 (expressing KRAS G12C mutant) and Panc-1 (expressing KRas G12D mutant), and Human non-small cell lung cancer (NSCLC) cell line A549 (expressing KRas G12S mutant), and Human melanoma cell line A375 (wild type Kras) were grown in complete DMEM-High Glucose medium. Human tumor-derived pancreatic cancer cell lines SU86.86 (expressing KRas G12D mutant), BxPC3 (expressing wild type K-Ras), and Human non-small cell lung cancer (NSCLC) cell lines NCI-H441 (expressing KRas G12S mutant), NCI-H1975 (expressing wild type KRas), NCI-H358 (expressing KRas G12C mutant), NCI-H1299 (expressing NRas Q61H mutant), and Human colon cancer cell line SW-620 (expressing KRas G12V mutant), Human triple negative breast cancer cell line HCC-1806 (expressing wild type KRas), and Human tumor-derived multiple myeloma cell line MM.1R (expressing wild type KRAS), were grown in RPMI 1640 medium. Human tumor-derived breast cancer cell line BT-549 (expressing wild type KRAS) was grown in RPMI 1640 medium in the presence of 11.8U insulin. Human tumor-derived pancreatic cancer cell line HPAF-II (expressing KRas G12D mutant), Human triple negative breast cancer cell line BT-20 (expressing wild type KRas), and Human colon cancer cell line LS123 (expressing KRas G12S mutant), were grown in EMEM medium. Human tumor-derived pancreatic cancer cell line CF-PAC1 (expressing KRas G12V mutant) was frown in IMDM medium, and Human colon cancer cell line HT29 (expressing wild type KRas) was grown in McCoy's 5A medium. The colon cancer cell line GP2d (expressing KRas G12D mutant) was purchased from MilliporeSigma and grown in DMEM-High Glucose medium. All cell lines were supplemented with penicillin (100 U/mL), streptomycin (100 μg/mL), and 10% heat-inactivated FBS at 37° C. in a humidified incubator with 5% CO2.
as §3, with “that were” for “to be”, “FBS,” for “FBS”

[4] = test system: SW-620 (expressing KRas G12V mutant); assay: Proliferation Assay (Cell Viability Assay); assay type: cell-based; conditions: Homo sapiens, SW-620, colon
Procedure: as §2, §3, §4, §5
as §3, with “that were” for “to be”, “FBS,” for “FBS”

COc1ccnc(Nc2nc(-c3nccn3C)nn3cc(-c4ccn(C(C)C)n4)c(C)c23)c1 [Compound 58, 6-(1-Isopropyl-1H-pyrazol-3-yl)-N-(4-methoxypyridin-2-yl)-5-methyl-2-(1-methyl-1H-imidazol-2-yl)pyrrolo[2,1-f][1,2,4]triazin-4-amine]
Increased PUMA expression (PUMA expression; A549, after 48 hours): yes
Increased PUMA expression (PUMA expression; BT-549, after 48 hours): yes
Increased PUMA expression (PUMA expression; MiaPaca2, after 48 hours): yes
IC50 [1]: < 0.15 µM
IC50 [2]: < 0.15 µM
IC50 [3]: < 0.15 µM
IC50 [4]: < 0.15 µM
